Experimental data reported in ChEMBL document CHEMBL1201862, “PubChem BioAssay data set” (2004).
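Method: 48-hour compound exposure of cells in 96-well plates, five concentrations, linear interpolation of endpoints. Here, GI50 denotes the concentration required for 50% inhibition of growth.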 Activity calls are given as the source filed them. No stated cut-off is given here; in the data, active = GI50 up to about 1.1 µM and inactive = higher.

Tests used:
Assay in all cases: growth of human tumour cells (NCI), 48 h
786-0 = test system: 786-0
A498 = test system: A498
A549 = test system: A549
ACHN = test system: ACHN
BT-549 = test system: BT-549
CAKI-1 = test system: CAKI-1
CCRF-CEM = test system: CCRF-CEM
COLO 205 = test system: COLO 205
DU-145 = test system: DU-145
EKVX = test system: EKVX
HCC 2998 = test system: HCC 2998
HCT-116 = test system: HCT-116
HCT-15 = test system: HCT-15
HL-60 = test system: HL-60
HOP-62 = test system: HOP-62
HOP-92 = test system: HOP-92
HT-29 = test system: HT-29
Hs-578T = test system: Hs-578T
IGROV-1 = test system: IGROV-1
K562 = test system: K562
KM12 = test system: KM12
LOX IMVI = test system: LOX IMVI
M14 = test system: M14
MCF7 = test system: MCF7
MDA-MB-231 = test system: MDA-MB-231
MDA-MB-435 = test system: MDA-MB-435
MDA-N = test system: MDA-N
MOLT-4 = test system: MOLT-4
Malme-3M = test system: Malme-3M
NCI-H226 = test system: NCI-H226
NCI-H23 = test system: NCI-H23
NCI-H460 = test system: NCI-H460
NCI-H522 = test system: NCI-H522
NCI/ADR-RES = test system: NCI/ADR-RES
OVCAR-3 = test system: OVCAR-3
OVCAR-4 = test system: OVCAR-4
OVCAR-5 = test system: OVCAR-5
OVCAR-8 = test system: OVCAR-8
PC-3 = test system: PC-3
RXF 393 = test system: RXF 393
SF-268 = test system: SF-268
SF-295 = test system: SF-295
SF-539 = test system: SF-539
SK-MEL-28 = test system: SK-MEL-28
SK-MEL-2 = test system: SK-MEL-2
SK-MEL-5 = test system: SK-MEL-5
SK-OV-3 = test system: SK-OV-3
SN12C = test system: SN12C
SNB-19 = test system: SNB-19
SNB-75 = test system: SNB-75
SW-620 = test system: SW-620
T47D = test system: T47D
TK-10 = test system: TK-10
U-251 = test system: U-251
UACC-257 = test system: UACC-257
UACC-62 = test system: UACC-62
RPMI-8226 = test system: RPMI-8226
UO-31 = test system: UO-31

Measured: GI50

Cc1ccc(-c2cc(-c3ccc(Cl)cc3)nc(/N=C3\C(=O)N(CN4CCCCC4)c4ccc(Cl)cc43)n2)cc1
inactive: 786-0 18.9 µM | A498 18.8 µM | A549 16.4 µM | ACHN 29.6 µM | BT-549 22.4 µM | CAKI-1 18.1 µM | CCRF-CEM 36.3 µM | COLO 205 25.2 µM | DU-145 37.5 µM | EKVX 77.8 µM | HCC 2998 14.9 µM | HCT-116 23.1 µM | HL-60 16 µM | HOP-62 26.3 µM | HOP-92 15.6 µM | HT-29 32.3 µM | Hs-578T 18.9 µM | IGROV-1 10.5 µM | K562 19.9 µM | KM12 15.8 µM | LOX IMVI 23.3 µM | M14 15.6 µM | MCF7 21.1 µM | MDA-MB-231 36.2 µM | MDA-MB-435 20.3 µM | MDA-N 21.3 µM | MOLT-4 11.7 µM | Malme-3M 84.3 µM | NCI-H226 39.4 µM | NCI-H23 19.1 µM | NCI-H460 22.5 µM | NCI-H522 12.5 µM | NCI/ADR-RES 22.1 µM | OVCAR-3 35.5 µM | OVCAR-4 31.5 µM | OVCAR-5 38.2 µM | OVCAR-8 18.5 µM | PC-3 34 µM | RXF 393 18.3 µM | SF-268 17.9 µM | SF-295 42.2 µM | SF-539 24.5 µM | SK-MEL-28 64.1 µM | SK-MEL-2 18.2 µM | SK-MEL-5 19.8 µM | SK-OV-3 31.8 µM | SN12C 25.9 µM | SNB-19 11.2 µM | SNB-75 42.9 µM | SW-620 24.3 µM | T47D 29.9 µM | TK-10 21.7 µM | U-251 24 µM | UACC-257 22.9 µM | UACC-62 23 µM
24.4 µM: HCT-15

CC(CN1NC12CCCC2)N1NC12CCCC2 (centres undefined)
> 100 µM: HCT-15
inactive: 786-0 > 100 µM | A498 > 100 µM | A549 > 100 µM | ACHN > 100 µM | BT-549 > 100 µM | CAKI-1 > 100 µM | CCRF-CEM > 100 µM | COLO 205 > 100 µM | DU-145 > 100 µM | EKVX > 100 µM | HCC 2998 > 100 µM | HCT-116 > 100 µM | HL-60 > 100 µM | HOP-62 > 100 µM | HOP-92 > 100 µM | HT-29 > 100 µM | Hs-578T > 100 µM | IGROV-1 > 100 µM | K562 > 100 µM | KM12 > 100 µM | LOX IMVI > 100 µM | M14 > 100 µM | MCF7 > 100 µM | MDA-MB-231 > 100 µM | MDA-MB-435 > 100 µM | MDA-N > 100 µM | MOLT-4 > 100 µM | Malme-3M > 100 µM | NCI-H226 > 100 µM | NCI-H23 > 100 µM | NCI-H460 > 100 µM | NCI-H522 > 100 µM | NCI/ADR-RES > 100 µM | OVCAR-3 > 100 µM | OVCAR-4 > 100 µM | OVCAR-5 > 100 µM | OVCAR-8 > 100 µM | PC-3 > 100 µM | RPMI-8226 > 100 µM | RXF 393 > 100 µM | SF-268 > 100 µM | SF-295 > 100 µM | SF-539 > 100 µM | SK-MEL-28 > 100 µM | SK-MEL-2 > 100 µM | SK-MEL-5 > 100 µM | SK-OV-3 > 100 µM | SN12C > 100 µM | SNB-19 > 100 µM | SNB-75 > 100 µM | SW-620 > 100 µM | T47D > 100 µM | TK-10 > 100 µM | U-251 > 100 µM | UACC-257 60.8 µM | UACC-62 > 100 µM | UO-31 > 100 µM
